We go through three molecules from ChEMBL document CHEMBL1772953, “Lupinacidin C, an inhibitor of tumor cell invasion from Micromonospora lupini” (J Nat Prod, 2011).

Data set [1] is described as follows: Antiinvasive activity against mouse 26-L5 cells after 6 to 8 hrs using hematoxylin/eosin dye by Matrigel assay. It counts as functional, cell-based.
The nature of data set [2]: Cytotoxicity against mouse 26-L5 cells at <0.3 ug/ml after 24 hrs. It counts as cell-based.

The molecule `CC[C@H](C)CCc1c(O)c(C)c(O)c2c1C(=O)c1c(O)cccc1C2=O` [LUPINACIDIN C] displayed an IC50 in data set [1] of 540 nM. Also, in data set [2], the Activity entry is on record as “Non-toxic”.
The molecule `Cc1c(O)c(CCC(C)C)c2c(c1O)C(=O)c1cccc(O)c1C2=O` [LUPINACIDIN A] came in with an IC50 in data set [1] of 210 nM.
`CCCCc1c(O)c(C)c(O)c2c1C(=O)c1c(O)cccc1C2=O` [LUPINACIDIN B] showed an IC50 in data set [1] of 920 nM.
